Publication PMC10746543, “Design principles for cyclin K molecular glue degraders” (Nature Chemical Biology, 2023)
“And” between values parts separate entries of the source, which are not always exact repeats. Equal values may be shown once. Read-outs that look alike come from different tables or passages of the source.

Assays:
CDK12–cyclin K and DDB1 = target: T1, CDK12–cyclin K and DDB1 (Homo sapiens, UniProt Q16531+Q9NYV4, K965R); assay: TR-FRET ternary complex formation assay (compound titration); type: binding; details: for TR-FRET signal at compound concentration: replicate titrations
T1 construct: His6–CDK12 (a.a. 713–1,052); full-length or beta-propeller B domain deletion (ΔBPB: a.a. 396–705 deleted) constructs of His6–DDB1ΔBPB, StrepII–Avi–DDB1, or His6–Spy–DDB1; made in house; host or cells: Trichoplusia ni High Five insect cells (baculovirus)
How it was run: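 Signal was the ratio of 520 nm to 490 nm fluorescence, measured after a 70 μs delay that reduced background.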

[1] = tested on: cyclin K–eGFP degradation reporter; assay: Cyclin K reporter stability analysis (dual-color cyclin K–eGFP reporter); type: cell-based, human; details: source data sheet correlations; read-out: DC50
How it was run: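 Readout was the eGFP-to-mCherry geometric-mean ratio by flow cytometry, normalized to three DMSO controls, after 5 h drug exposure. Cells used were HEK293T–Cas9 expressing the dual-colour cyclin K–eGFP degradation reporter.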

HEK293T cells = assay: Drug sensitivity assay (CellTiter-Glo viability) with or without MLN4924 pretreatment; type: cell-based, human; details: for EC50: Homo sapiens, HEK-293T; for Toxicity rescue: MLN4924-mediated cytotoxicity rescue, 10 µM used where n.d.
How it was run: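 HEK293T–Cas9, 0.15 × 10^6 ml^−1; pretreat DMSO vs 100 nM MLN4924; drugs dispensed after 2 h; 3 d exposure; CellTiter-Glo; viability vs DMSO control.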

[2] = compound concentration 0.468 nM
[3] = compound concentration 7.92001 nM
[4] = compound concentration 15.84 nM
[5] = compound concentration 30.96 nM
[6] = compound concentration 62.6401 nM
[7] = compound concentration 125.28 nM
[8] = compound concentration 244.8 nM
[9] = compound concentration 993.601 nM
[10] = compound concentration 2001.6 nM
[11] = in vitro complex formation, 50 nM CDK12–cyclin K, 100 nM DDB1, text and figures, read-out: TR-FRET EC50
[12] = source data sheet correlations, read-out: TR-FRET EC50
[13] = Supplementary Table 2, HEK293T viability, 72 h, compound alone, read-out: Cellular assays EC50

T1 sequence (Q9NYV4 713-1052 K965R): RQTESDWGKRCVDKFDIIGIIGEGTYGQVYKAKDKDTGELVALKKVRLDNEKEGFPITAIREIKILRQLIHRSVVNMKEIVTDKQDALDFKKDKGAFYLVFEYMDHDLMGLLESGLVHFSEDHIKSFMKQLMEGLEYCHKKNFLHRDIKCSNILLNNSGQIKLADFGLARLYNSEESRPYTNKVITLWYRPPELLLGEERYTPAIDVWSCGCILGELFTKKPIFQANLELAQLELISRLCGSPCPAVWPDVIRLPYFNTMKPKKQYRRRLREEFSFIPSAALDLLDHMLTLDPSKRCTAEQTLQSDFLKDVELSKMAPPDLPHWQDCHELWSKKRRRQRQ
T1 sequence (O75909 1-267 partner): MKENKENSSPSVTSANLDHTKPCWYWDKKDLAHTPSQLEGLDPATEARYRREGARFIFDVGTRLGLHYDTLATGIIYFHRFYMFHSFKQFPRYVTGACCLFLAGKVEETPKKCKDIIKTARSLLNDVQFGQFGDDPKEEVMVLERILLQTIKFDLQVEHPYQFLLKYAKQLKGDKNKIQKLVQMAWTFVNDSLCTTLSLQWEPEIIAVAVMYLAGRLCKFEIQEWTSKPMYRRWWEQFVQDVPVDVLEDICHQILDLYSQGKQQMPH
T1 sequence (Q16531 whole entry): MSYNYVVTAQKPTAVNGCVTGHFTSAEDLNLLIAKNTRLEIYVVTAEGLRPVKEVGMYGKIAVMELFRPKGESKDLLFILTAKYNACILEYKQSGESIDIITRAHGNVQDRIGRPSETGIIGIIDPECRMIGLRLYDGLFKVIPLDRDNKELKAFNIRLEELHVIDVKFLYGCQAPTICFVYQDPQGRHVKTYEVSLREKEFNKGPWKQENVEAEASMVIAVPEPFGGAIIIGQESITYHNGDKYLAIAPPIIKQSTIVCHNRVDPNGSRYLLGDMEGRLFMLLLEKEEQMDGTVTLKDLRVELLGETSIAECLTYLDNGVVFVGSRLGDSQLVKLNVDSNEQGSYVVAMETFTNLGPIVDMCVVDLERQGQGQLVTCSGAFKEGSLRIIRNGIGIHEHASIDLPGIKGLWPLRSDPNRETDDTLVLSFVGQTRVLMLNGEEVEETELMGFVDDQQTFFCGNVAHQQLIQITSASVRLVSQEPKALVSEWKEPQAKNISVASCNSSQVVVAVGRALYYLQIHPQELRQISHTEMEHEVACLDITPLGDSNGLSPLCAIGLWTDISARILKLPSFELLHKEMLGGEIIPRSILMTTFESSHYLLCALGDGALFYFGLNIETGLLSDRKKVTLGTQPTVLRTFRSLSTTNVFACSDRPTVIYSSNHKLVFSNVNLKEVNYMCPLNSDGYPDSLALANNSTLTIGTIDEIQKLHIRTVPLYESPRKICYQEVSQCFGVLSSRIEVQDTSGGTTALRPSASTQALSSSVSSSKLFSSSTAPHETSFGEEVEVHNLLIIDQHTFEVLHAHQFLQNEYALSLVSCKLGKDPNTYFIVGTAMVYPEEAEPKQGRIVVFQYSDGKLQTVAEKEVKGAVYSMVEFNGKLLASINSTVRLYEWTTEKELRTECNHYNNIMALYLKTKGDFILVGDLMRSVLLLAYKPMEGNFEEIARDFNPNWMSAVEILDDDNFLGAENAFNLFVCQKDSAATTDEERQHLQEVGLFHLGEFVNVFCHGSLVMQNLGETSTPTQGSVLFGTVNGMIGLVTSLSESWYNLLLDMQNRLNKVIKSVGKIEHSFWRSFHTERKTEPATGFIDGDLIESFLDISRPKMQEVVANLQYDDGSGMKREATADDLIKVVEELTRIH

TR-FRET signal at compound concentration (CDK12–cyclin K and DDB1; [2]) | TR-FRET signal at compound concentration (CDK12–cyclin K and DDB1; compound concentration 2.16 nM) | TR-FRET signal at compound concentration (CDK12–cyclin K and DDB1; compound concentration 3.6 nM) | TR-FRET signal at compound concentration (CDK12–cyclin K and DDB1; [3]) | TR-FRET signal at compound concentration (CDK12–cyclin K and DDB1; [4]) | TR-FRET signal at compound concentration (CDK12–cyclin K and DDB1; [5]) | TR-FRET signal at compound concentration (CDK12–cyclin K and DDB1; [6]) | TR-FRET signal at compound concentration (CDK12–cyclin K and DDB1; [7]) | TR-FRET signal at compound concentration (CDK12–cyclin K and DDB1; [8]) | TR-FRET signal at compound concentration (CDK12–cyclin K and DDB1; [9]) | TR-FRET signal at compound concentration (CDK12–cyclin K and DDB1; [10]) | EC50 (CDK12–cyclin K and DDB1; [11]) | EC50 (CDK12–cyclin K and DDB1; [12]) | DC50 [1] | Structure (SMILES) | EC50 (HEK293T cells; [13]) | Toxicity rescue (HEK293T cells; Supplementary Table 2) | other results
0.3136 and 0.2898 | 0.3334 and 0.33 | 0.3697 and 0.368 | 0.4418 and 0.4327 | 0.566 and 0.543 | 0.7892 and 0.7403 | 1.141 and 1.026 | 1.566 and 1.513 | 2.027 and 2.001 | 2.439 and 2.564 | 2.241 and 2.631 | 104 ± 7 nM | 104 nM | 571 nM | CC[C@H](CO)Nc1nc(NCCCc2cccc(O)c2)c2ncn(C(C)C)c2n1 [DS68] | 2520 nM | 296% | TR-FRET signal (CDK12–cyclin K and DDB1; [2]): 0.3136 and 0.2898; TR-FRET signal (CDK12–cyclin K and DDB1; compound concentration 2.16 nM): 0.3334 and 0.33; TR-FRET signal (CDK12–cyclin K and DDB1; compound concentration 3.6 nM): 0.3697 and 0.368; TR-FRET signal (CDK12–cyclin K and DDB1; [3]): 0.4418 and 0.4327; TR-FRET signal (CDK12–cyclin K and DDB1; [4]): 0.566 and 0.543; TR-FRET signal (CDK12–cyclin K and DDB1; [5]): 0.7892 and 0.7403; TR-FRET signal (CDK12–cyclin K and DDB1; [6]): 1.141 and 1.026; TR-FRET signal (CDK12–cyclin K and DDB1; [7]): 1.566 and 1.513; TR-FRET signal (CDK12–cyclin K and DDB1; [8]): 2.027 and 2.001; TR-FRET signal (CDK12–cyclin K and DDB1; [9]): 2.439 and 2.564; TR-FRET signal (CDK12–cyclin K and DDB1; [10]): 2.241 and 2.631; EC50 (HEK293T cells; Supplementary Fig. 5, HEK293T, CellTiter Glo, 72h, pre-treatment with 100 nM MLN4924, read-out: Viability EC50, with MLN4924): 109000 nM
0.3264 and 0.326 | 0.4029 and 0.3893 | 0.5395 and 0.5039 | 0.8326 and 0.7539 | 1.268 and 1.146 | 1.86 and 1.701 | 2.3803 and 2.291 | 2.963 and 2.837 | 3.2576 and 3.227 | 3.4627 and 3.352 | 3.462 and 3.373 | 36 ± 1 nM | 35.9 nM | 217 nM | CC[C@H](CO)Nc1nc(NCCCc2cccc(C)n2)c2ncn(C(C)C)c2n1 [DS69] | 864 nM | 599% | EC50 (CDK12–cyclin K and DDB1; sheet MOESM7, read-out: log TR-FRET EC50 (converted)): 35.9 nM
